In ChEMBL document CHEMBL4411344, “Synthesis and biological evaluation of new long-chain squaramides as anti-chagasic agents in the BALB/c mouse model” (Bioorg Med Chem, 2019):
Activity calls are given as the source filed them. The rule behind the calls is not given here.

Assays:
[1] = tested on: Trypanosoma cruzi; assay: Trypanocidal activity against Trypanosoma cruzi TINF/CH/1956/Tulahuen DTU 6 amastigotes infected in African green monkey Vero cells after 72 hrs by Giemsa-staining based microscopic assay; format: functional, organism-based; details: TINF/CH/1956/Tulahuen DTU 6, Vero
[2] = Nephrotoxicity in Balb/c mouse infected with Trypanosoma cruzi MHOM/Pe/2011/Arequipa DTU 5 trypomastigotes assessed as decrease in serum uric acid level at 20 mg/kg, po once daily for 5 consecutive days starting from day 75 post infection measured on day 81 post infection relative to control; format: toxicity, organism-based; details: in vivo
[3] = tested on: Trypanosoma cruzi; assay: Trypanocidal activity against Trypanosoma cruzi MHOM/Pe/2011/Arequipa DTU 5 amastigotes infected in African green monkey Vero cells assessed as infected cells at 50 uM after 72 hrs by Giemsa-staining based assay; format: functional
[4] = tested on: Trypanosoma cruzi; assay: (§1) Antitrypanosomal activity against Trypanosoma cruzi MHOM/Pe/2011/Arequipa DTU 5 trypomastigotes infected in Balb/c mouse assessed as reduction in parasitaemia level at 20 mg/kg, po once daily for 5 consecutive days starting from day 10 post infection measured on day 40 post infection by Neubauer chamber method; format: functional, organism-based
[5] = (§2) Hepatotoxicity in Balb/c mouse infected with Trypanosoma cruzi MHOM/Pe/2011/Arequipa DTU 5 trypomastigotes assessed as change in ratio of serum AST to GOT level at 20 mg/kg, po once daily for 5 consecutive days starting from day 10 post infection measured on day 127 post infection by biochemical analysis (reference value: 179 U/L); format: toxicity, organism-based; details: in vivo
[6] = tested on: Trypanosoma cruzi; assay: Antitrypanosomal activity against Trypanosoma cruzi MHOM/Pe/2011/Arequipa DTU 5 epimastigotes assessed as effect on parasite glycolytic pathway by measuring increase in pyruvate excretion at IC25 after 72 hrs by 1H NMR method; format: functional, organism-based
[7] = Selectivity index, ratio of IC50 for African green monkey Vero cells to IC50 for Trypanosoma cruzi MHOM/Pe/2011/Arequipa DTU 5 trypomastigotes derived from infected Balb/c mouse; format: toxicity; details: read-out: Ratio IC50
[8] = tested on: Trypanosoma cruzi; assay: Trypanocidal activity against Trypanosoma cruzi IRHOD/CO/2008/SN3 DTU 1 trypomastigotes derived from infected Balb/c mouse after 72 hrs by resazurin dye based assay; format: functional, organism-based; details: IRHOD/CO/2008/SN3 DTU 1, 72 h
[9] = as §2, with “total bilirubin” for “ratio of serum AST to GOT”, “0.21 mg/dl)” for “179 U/L)”; format: toxicity, organism-based; details: in vivo
[10] = (§3) Hepatotoxicity in Balb/c mouse infected with Trypanosoma cruzi MHOM/Pe/2011/Arequipa DTU 5 trypomastigotes assessed as increase in total bilirubin level at 20 mg/kg, po once daily for 5 consecutive days starting from day 75 post infection measured on day 127 post infection relative to control; format: toxicity, organism-based; details: in vivo
[11] = tested on: Trypanosoma cruzi; assay: as §1, with “23” for “40”, “method relative to control” for “method”; format: functional; parameters: scale not given: the % may be the effect or the level left
[12] = tested on: Trypanosoma cruzi; assay: as §1, with “measured every 2 to 3 days up to” for “measured on”, “day 50 post infection starting from day 7” for “day 40”; format: functional, organism-based
[13] = tested on: Trypanosoma cruzi; assay: Trypanocidal activity against Trypanosoma cruzi IRHOD/CO/2008/SN3 DTU 1 epimastigotes after 72 hrs by resazurin dye based assay; format: functional, organism-based; details: IRHOD/CO/2008/SN3 DTU 1, 72 h
[14] = tested on: Trypanosoma cruzi; assay: Trypanocidal activity against Trypanosoma cruzi MHOM/Pe/2011/Arequipa DTU 5 trypomastigotes derived from infected Balb/c mouse after 72 hrs by resazurin dye based assay; format: functional, organism-based; details: MHOM/Pe/2011/Arequipa DTU 5, 72 h
[15] = Hepatotoxicity in Balb/c mouse infected with Trypanosoma cruzi MHOM/Pe/2011/Arequipa DTU 5 trypomastigotes assessed as increase in alkaline phosphatase level at 20 mg/kg, po once daily for 5 consecutive days starting from day 75 post infection measured on day 81 post infection relative to control; format: toxicity, organism-based; details: in vivo
[16] = Selectivity index, ratio of IC50 for African green monkey Vero cells to IC50 for Trypanosoma cruzi TINF/CH/1956/Tulahuen DTU 6 epimastigotes; format: toxicity; details: read-out: Ratio IC50
[17] = Selectivity index, ratio of IC50 for African green monkey Vero cells to IC50 for Trypanosoma cruzi MHOM/Pe/2011/Arequipa DTU 5 amastigotes infected in African green monkey Vero cells; format: toxicity; details: read-out: Ratio IC50
[18] = tested on: Trypanosoma cruzi; assay: Antitrypanosomal activity against Trypanosoma cruzi MHOM/Pe/2011/Arequipa DTU 5 epimastigotes assessed as effect on parasite glycolytic pathway by measuring increase in L-alanine excretion at IC25 after 72 hrs by 1H NMR method; format: functional, organism-based
[19] = Selectivity index, ratio of IC50 for African green monkey Vero cells to IC50 for Trypanosoma cruzi MHOM/Pe/2011/Arequipa DTU 5 epimastigotes; format: toxicity; details: read-out: Ratio IC50
[20] = tested on: Trypanosoma cruzi; assay: Trypanocidal activity against Trypanosoma cruzi MHOM/Pe/2011/Arequipa DTU 5 amastigotes infected in African green monkey Vero cells after 72 hrs by Giemsa-staining based microscopic assay; format: functional, organism-based; details: MHOM/Pe/2011/Arequipa DTU 5, Vero
[21] = as §2, with “increase” for “change”, “relative to control” for “(reference value: 179 U/L)”; format: toxicity, organism-based; details: in vivo
[22] = tested on: Trypanosoma cruzi; assay: Antitrypanosomal activity against Trypanosoma cruzi MHOM/Pe/2011/Arequipa DTU 5 epimastigotes assessed as effect on parasite glycolytic pathway by measuring decrease in acetate excretion at IC25 after 72 hrs by 1H NMR method; format: functional, organism-based
[23] = as §3, with “change” for “increase”, “(reference value: 0.23 mg/dl)” for “relative to control”; format: toxicity, organism-based; details: in vivo
[24] = tested on: Trypanosoma cruzi; assay: Antitrypanosomal activity against Trypanosoma cruzi MHOM/Pe/2011/Arequipa DTU 5 epimastigotes assessed as effect on parasite glycolytic pathway by measuring decrease in D-lactate excretion at IC25 after 72 hrs by 1H NMR method; format: functional, organism-based
[25] = tested on: Trypanosoma cruzi; assay: Antitrypanosomal activity against Trypanosoma cruzi MHOM/Pe/2011/Arequipa DTU 5 epimastigotes assessed as effect on parasite glycolytic pathway by measuring decrease in pyruvate excretion at IC25 after 72 hrs by 1H NMR method; format: functional; parameters: scale not given: the % may be the effect or the level left
[26] = tested on: Trypanosoma cruzi; assay: Antitrypanosomal activity against Trypanosoma cruzi MHOM/Pe/2011/Arequipa DTU 5 epimastigotes assessed as effect on parasite glycolytic pathway by measuring decrease in ethanol excretion at IC25 after 72 hrs by 1H NMR method; format: functional, organism-based
[27] = Nephrotoxicity in Balb/c mouse infected with Trypanosoma cruzi MHOM/Pe/2011/Arequipa DTU 5 trypomastigotes assessed as decrease in serum uric acid level at 20 mg/kg, po once daily for 5 consecutive days starting from day 75 post infection measured on day 127 post infection relative to control; format: toxicity, organism-based; details: in vivo
[28] = as §3, with “from day 10 post infection” for “from day 75 post infection”, “post infection by biochemical analysis relative to” for “post infection relative to”; format: toxicity, organism-based; details: in vivo
[29] = as §3, with “ratio of serum AST to GOT” for “total bilirubin”; format: toxicity, organism-based; details: in vivo
[30] = Hepatotoxicity in Balb/c mouse infected with Trypanosoma cruzi MHOM/Pe/2011/Arequipa DTU 5 trypomastigotes assessed as increase in alkaline phosphatase level at 20 mg/kg, po once daily for 5 consecutive days starting from day 75 post infection measured on day 127 post infection relative to control; format: toxicity, organism-based; details: in vivo

CCCCCCCCCCCCCCCCNc1c(N(C)CCCN(C)C)c(=O)c1=O gave an IC50 [1] of 6.4 µM, an Activity [2] of 20 to 30 mg/dL and an Activity [3] of 0. The Activity [4] was “Active”, the Activity [5] was 179 U/L and the Activity [6] was “Active”. The selectivity ratio [7] was 154, the IC50 [8] was 5.4 µM and the Activity [9] was 0.21 mg/dL. The Activity [10] was 10%, the Activity [11] was 80% and the Activity [12] was “Active”. For the same molecule, the IC50 [13] was 16 µM, the IC50 [14] was 4.4 µM and the Activity [15] was 10 to 20 U/L. For the same molecule, the selectivity ratio [16] was 71.1, the selectivity ratio [17] was 3090 and the Activity [18] was “Active”. It also gave a selectivity ratio [19] of 93.1 and an IC50 [20] of 0.2 µM.

CCCCCCNc1c(N(C)CCCN(C)C)c(=O)c1=O gave an IC50 [1] of 38.3 µM, an Activity [2] of 10 to 20 mg/dL and an Activity [21] of 20 to 30 U/L. For the same molecule, the Activity [22] was “Active”, the selectivity ratio [7] was 139 and the IC50 [8] was 15.8 µM. The Activity [23] was 0.2 mg/dL, the Activity [9] was 0.21 mg/dL and the Activity [24] was “Active”. The Activity [12] was “inactive”, the IC50 [13] was 14.3 µM and the Activity [25] was 30%. The Activity [26] was “Active”, the IC50 [14] was 6.5 µM and the selectivity ratio [16] was 61.3. The selectivity ratio [17] was 52.1, the Activity [27] was 10 to 20 mg/dL and the selectivity ratio [19] was 44.3. The IC50 [20] was 17.3 µM.

In the case of O=C(Cn1ccnc1[N+](=O)[O-])NCc1ccccc1 [BENZNIDAZOLE], the Activity [4] is reported as “Active”, the Activity [21] is reported as greater than 40 U/L and the Activity [28] is reported as 10%. For the same molecule, the Activity [10] was 20%, the Activity [11] was 70% and the Activity [29] was 10 to 20 U/L. For the same molecule, the Activity [30] was 20 to 30 U/L, the Activity [15] was greater than 40 U/L and the Activity [27] was 10 to 20 mg/dL.
